Source: PMC2586124 (Journal of natural products, 2008)

Target: HIV-1 RNase H (Human immunodeficiency virus type 1 group M subtype B, UniProt P04585)
Experiment: RNase H FRET assay, HIV-1 RNase H
Assay type: biochemical
Conditions: IC50, HIV-1 RNase H, in vitro

With O=C(OC[C@H]1O[C@@H](Oc2ccc(O)cc2)[C@H](OC(=O)c2cc(O)c(O)c(O)c2)[C@@H](O)[C@@H]1O)c1ccc(O)cc1 [hyemaloside B (2), hyemaloside B] the IC50 was > 18.3 µM.
